Laboratory results taken from patent publication US4496584A, “Amidine derivatives with anti-complement activity” (Torii & Co. Ltd., priority 1981, dated 1985).
Read-outs that look alike come from different tables or passages of the source.

Legend:
plasmin = plasmin (Homo sapiens, UniProt P00747); assay: Enzyme inhibition, TAME hydrolysis, plasmin (method of Muramatsu et al.); assay type: biochemical; conditions: read-out: ID50, plasmin
Experimental: (§1) The enzyme inhibitory activity was determined according to the method of Muramatsu et al. [M. Muramatsu, T. Onishi, S. Makino, Y. Hayashi and S. Fujii, J. Biochem., 58, 214 (1965)]. The data summarized in Table 1 are expressed in terms of molar concentration (ID50) of the test compound which inhibits 50% of the activity of each enzyme to hydrolyze TAME (tosylarginine methyl ester).

[1] = Toxicity, lethal dose (LD50); conditions: mouse, in vivo
trypsin = target: T1, trypsin (Bos taurus, UniProt P00760); assay: Enzyme inhibition, TAME hydrolysis, trypsin (method of Muramatsu et al.); assay type: biochemical; conditions: hydrolysis of TAME; read-out: ID50, trypsin
T1 sequence (P00760 24-246): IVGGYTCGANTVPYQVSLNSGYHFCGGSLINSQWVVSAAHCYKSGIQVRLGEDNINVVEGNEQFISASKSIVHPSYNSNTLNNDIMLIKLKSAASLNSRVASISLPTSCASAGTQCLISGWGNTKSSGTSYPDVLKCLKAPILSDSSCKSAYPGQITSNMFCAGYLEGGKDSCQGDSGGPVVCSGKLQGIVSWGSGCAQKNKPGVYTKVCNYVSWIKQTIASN
Experimental: as §1

Clr = target: T2, Clr (Homo sapiens, UniProt P00736); assay: Anti-Cl esterase activity, Clr (AAME hydrolysis, method of Okamura et al.); assay type: biochemical; conditions: read-out: Anti-C1 activity, Clr (ID50)
T2 sequence (P00736 464-705 limits assumed): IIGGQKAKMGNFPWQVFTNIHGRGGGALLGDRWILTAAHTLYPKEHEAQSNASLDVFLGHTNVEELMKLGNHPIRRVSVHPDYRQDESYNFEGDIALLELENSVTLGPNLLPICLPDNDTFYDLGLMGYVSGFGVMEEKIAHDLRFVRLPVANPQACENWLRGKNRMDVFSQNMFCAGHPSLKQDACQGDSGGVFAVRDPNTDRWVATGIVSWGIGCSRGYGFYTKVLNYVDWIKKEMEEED
T2 sequence (P00736 18-463 partner limits assumed): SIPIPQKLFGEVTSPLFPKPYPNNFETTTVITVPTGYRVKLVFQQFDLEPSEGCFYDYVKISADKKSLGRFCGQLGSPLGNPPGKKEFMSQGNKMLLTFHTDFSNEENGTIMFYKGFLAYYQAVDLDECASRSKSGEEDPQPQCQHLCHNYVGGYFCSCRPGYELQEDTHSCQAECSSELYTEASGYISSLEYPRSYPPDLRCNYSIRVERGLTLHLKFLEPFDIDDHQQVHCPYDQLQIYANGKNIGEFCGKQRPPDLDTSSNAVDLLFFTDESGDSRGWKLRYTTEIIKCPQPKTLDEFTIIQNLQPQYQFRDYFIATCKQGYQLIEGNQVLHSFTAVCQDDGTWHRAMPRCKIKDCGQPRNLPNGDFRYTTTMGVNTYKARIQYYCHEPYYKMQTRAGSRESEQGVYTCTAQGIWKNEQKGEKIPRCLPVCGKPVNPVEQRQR
Experimental: (§2) The anti-Cl esterase (Clr, Cls) activity was determined according to the method of Okamura et al. [K. Okamura, M. Muramatsu and S. Fujii, Biochem. Biophys. Acta, 295, 252-257 (1973)]. The inhibition of complement mediated hemolysis (percent) was determined according to the method of Baker et al. [B. R. Baker and E. H. Erickson, J. Med. Chem., 12, 408-414 (1969)]. The figures in Table 2 have the following meanings:
Clr: Molar concentration of the test compound which inhibits 50% of the ability of Clr to hydrolyse AAME (acetylarginin methyl ester) (ID50).

thrombin = thrombin (Bos taurus, UniProt P00735); assay: Enzyme inhibition, TAME hydrolysis, thrombin (method of Muramatsu et al.); assay type: biochemical
Experimental: as §1

[2] = tested on: complement mediated hemolysis; assay: Inhibition of complement mediated hemolysis (method of Baker et al.); assay type: cell-based
kallikrein = assay: Enzyme inhibition, TAME hydrolysis, kallikrein (method of Muramatsu et al.); assay type: biochemical; conditions: read-out: ID50, kallikrein
Experimental: as §1

Cls = target: T3, Cls (Homo sapiens, UniProt P09871); assay: Anti-Cl esterase activity, Cls (ATEE hydrolysis, method of Okamura et al.); assay type: biochemical; conditions: read-out: Anti-C1 activity, Cls (ID50)
T3 sequence (P09871 438-688 limits assumed): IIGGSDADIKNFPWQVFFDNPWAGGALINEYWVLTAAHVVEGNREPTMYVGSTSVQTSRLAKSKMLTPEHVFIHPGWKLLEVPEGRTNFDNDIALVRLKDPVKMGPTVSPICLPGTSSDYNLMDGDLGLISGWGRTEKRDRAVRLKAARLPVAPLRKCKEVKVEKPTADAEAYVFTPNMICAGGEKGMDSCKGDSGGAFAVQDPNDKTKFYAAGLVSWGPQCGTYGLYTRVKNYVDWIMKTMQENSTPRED
T3 sequence (P09871 16-437 partner limits assumed): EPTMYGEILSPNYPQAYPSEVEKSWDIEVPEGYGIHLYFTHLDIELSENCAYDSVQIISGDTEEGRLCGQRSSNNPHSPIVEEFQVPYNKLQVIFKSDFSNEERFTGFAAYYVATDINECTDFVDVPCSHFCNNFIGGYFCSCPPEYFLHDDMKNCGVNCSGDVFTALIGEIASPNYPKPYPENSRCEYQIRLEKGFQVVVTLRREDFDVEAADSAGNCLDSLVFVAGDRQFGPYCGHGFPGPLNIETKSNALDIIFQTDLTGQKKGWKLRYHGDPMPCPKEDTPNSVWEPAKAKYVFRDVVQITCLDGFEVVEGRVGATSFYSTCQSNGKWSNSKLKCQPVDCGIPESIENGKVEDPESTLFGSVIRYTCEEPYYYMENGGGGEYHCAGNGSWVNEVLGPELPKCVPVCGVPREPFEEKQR
Experimental: as §2
Cls: Molar concentration of the test compound which inhibits 50% of the ability of Cls to hydrolyse ATEE (acetyltyrosin ethyl ester) (ID50).

Chain of plasmin (P00747 581-810 limits assumed): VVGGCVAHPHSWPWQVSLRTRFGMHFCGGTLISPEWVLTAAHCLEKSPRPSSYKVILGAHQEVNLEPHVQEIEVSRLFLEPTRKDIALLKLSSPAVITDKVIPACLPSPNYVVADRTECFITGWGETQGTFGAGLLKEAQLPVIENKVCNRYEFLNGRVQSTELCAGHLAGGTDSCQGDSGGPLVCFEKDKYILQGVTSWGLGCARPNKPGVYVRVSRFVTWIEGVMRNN
Chain of plasmin (P00747 97-580 partner limits assumed): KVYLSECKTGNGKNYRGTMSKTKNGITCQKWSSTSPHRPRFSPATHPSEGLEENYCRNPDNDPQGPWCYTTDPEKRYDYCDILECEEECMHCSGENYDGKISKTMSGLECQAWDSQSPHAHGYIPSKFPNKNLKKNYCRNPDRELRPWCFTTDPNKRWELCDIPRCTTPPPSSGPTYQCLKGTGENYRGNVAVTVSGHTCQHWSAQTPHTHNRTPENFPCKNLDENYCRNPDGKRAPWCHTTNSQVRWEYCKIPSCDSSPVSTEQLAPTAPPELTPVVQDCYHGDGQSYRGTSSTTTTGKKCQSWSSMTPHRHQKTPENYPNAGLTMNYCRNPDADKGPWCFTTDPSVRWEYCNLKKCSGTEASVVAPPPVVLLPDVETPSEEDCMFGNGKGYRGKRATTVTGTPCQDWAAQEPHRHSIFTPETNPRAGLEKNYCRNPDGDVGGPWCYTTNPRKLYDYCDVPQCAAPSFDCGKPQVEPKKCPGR

SMILES | IC50 (plasmin) | LD50 ([1]; ip, read-out: LD50 Mouse IP) | LD50 ([1]; po, read-out: LD50 Mouse PO) | IC50 (trypsin) | IC50 (Clr) | IC50 (thrombin) | Inhibition of complement mediated hemolysis (%) ([2]; concentration 1 × 10^-4) | Inhibition of complement mediated hemolysis (%) ([2]; concentration 1 × 10^-5) | Inhibition of complement mediated hemolysis (%) ([2]; concentration 1 × 10^-6) | Inhibition of complement mediated hemolysis (%) ([2]; concentration 1 × 10^-7) | IC50 (kallikrein) | IC50 (Cls) | inhibition at 10 µM (thrombin; 1×10^-5 M, hydrolysis of TAME, read-out: percentage inhibition, thrombin (figure in parentheses))
CC(=O)Oc1ccc2cc(C(=N)N)ccc2c1 [Compound No. 1, 6-amidino-2-naphthyl acetate] | 200 µM | 200 mg/kg | 2500 mg/kg | 80 µM | 10 µM | 400 µM | 86% | 15% | 0% | 0% | 500 µM | 20 µM | –
N=C(N)NCCCCCC(=O)Oc1ccc2cc(C(=N)N)ccc2c1 [Compound No. 18, 6-amidino-2-naphthyl ε-guanidinocaproate] | 30 µM | – | – | 10 µM | 70 µM | 40 µM | 92% | 30% | 3% | 0% | > 10 µM | 9 µM | –
CCCC(=O)Oc1ccc2cc(C(=N)N)ccc2c1 [Compound No. 2, 6-amidino-2-naphthyl n-butyrate] | 30 µM | 200 mg/kg | 2500 mg/kg | 20 µM | 9 µM | 20 µM | 96% | 40% | 1% | 0% | 700 µM | 20 µM | –
CC(C)CC(=O)Oc1ccc2cc(C(=N)N)ccc2c1 [Compound No. 3, 6-amidino-2-naphthyl isovalerate] | 30 µM | – | – | 30 µM | 2 µM | 80 µM | 95% | 37% | 0% | 0% | 500 µM | 2 µM | –
CCCCCC(=O)Oc1ccc2cc(C(=N)N)ccc2c1 [compound 4, 6-amidino-2-naphthyl caproate] | 20 µM | – | – | 20 µM | 5 µM | 3000 µM | 83% | 12% | 5% | 0% | 300 µM | 4 µM | –
N=C(N)c1ccc2cc(OC(=O)C3CCCCC3)ccc2c1 [Compound No. 12, 6-amidino-2-naphthylcyclohexanecarboxylate] | 10 µM | – | – | 20 µM | 2 µM | 40 µM | 45% | 10% | 11% | 0% | > 10 µM | 3 µM | –
CCCCCCCCCC(=O)Oc1ccc2cc(C(=N)N)ccc2c1 [Compound No. 5, 6-amidino-2-naphthyl caprate] | 10 µM | – | – | 6 µM | – | – | – | – | – | – | 100 µM | – | 26%
N=C(N)c1ccc2cc(OC(=O)C3CC3)ccc2c1 [Compound No. 10, 6-amidino-2-naphthyl cyclopropanecarboxylate] | 4 µM | – | – | 2 µM | 0.2 µM | 3 µM | 100% | 92% | 18% | 0% | 100 µM | 0.3 µM | –
N=C(N)c1ccc2cc(OC(=O)CCCCCN)ccc2c1 [Compound No. 17, 6-amidino-2-naphthyl ε-aminocaproate] | 40 µM | – | – | 200 µM | – | 600 µM | – | – | – | – | 50 µM | – | –
CCCCCCCCCCCC(=O)Oc1ccc2cc(C(=N)N)ccc2c1 [Compound No. 6, 6-amidino-2-naphthyl laurate] | – | – | – | – | – | – | 13% | 13% | 27% | 15% | – | – | –
N=C(N)c1ccc2cc(OC(=O)CCCC3CCCCC3)ccc2c1 [Compound No. 15, 6-amidino-2-naphthyl 4-cyclohexylbutyrate] | – | – | – | – | – | > 10 µM | – | – | – | – | > 10 µM | – | –
C/C=C/C=C/C(=O)Oc1ccc2cc(C(=N)N)ccc2c1 [Compound No. 9, 6-amidino-2-naphthyl sorbate] | – | – | – | – | – | – | 94% | 89% | 37% | 14% | – | – | –
N=C(N)c1ccc2cc(OC(=O)CCCCCNC(=O)OCc3ccccc3)ccc2c1 [Compound No. 16, 6-amidino-2-naphthyl ε-benzyloxycarbonylaminocaproate] | 3 µM | – | – | 10 µM | 4 µM | 100 µM | 92% | 15% | 0% | 0% | 40 µM | 4 µM | –
N=C(N)c1ccc2cc(OC(=O)[C@H]3CC[C@H](CNC(=O)OCc4ccccc4)CC3)ccc2c1 [compound 19, 6-amidino-2-naphtyl trans-4-benzyloxycarbonylaminomethylcyclohexanecarboxylate] | 0.8 µM | – | – | 1 µM | 0.4 µM | 30 µM | 55% | 88% | 25% | 6% | 6 µM | 0.4 µM | –
N=C(N)c1ccc2cc(OC(=O)CC3C=CCC3)ccc2c1 (centres unmarked) [Compound No. 13, 6-amidino-2-naphthyl 2-cyclopenteneacetate] | – | – | – | – | – | – | 39% | 21% | 10% | 10% | – | – | –
